The test system of assay [1] is HBV. The assay is described as follows: HBV DNA replication in cytoplasmic core particles, Southern blot, HepG2 cells. It is filed as cell-based, hepatitis B virus. As to conditions: for increase of reverse transcription and DNA replication of (HBx−)HBV: HepG2 cells, 4 d, valinomycin 1 nM, thapsigargin 20 nM.
The test system of assay [2] is HBV. The assay is described as follows: HBV mRNA levels, Northern blot, HepG2 cells. In kind it is cell-based, hepatitis B virus. As to conditions: for cytoplasmic levels of HBV pgRNA and HBsAg mRNAs: HepG2 cells, 4 d, valinomycin 1 nM, thapsigargin 20 nM. How it is done: (§1) TPA treatment was for […] using 20 ng/ml. […] (C) Chang cells transfected with vector or pAdCMVX were treated 2h with 0.5 mM or 3 mM EGTA, and Pyk2 examined by immunoblot. (D) HepG2 cells were transfected with HBV, HBx(−) HBV genomic DNA or vector, complemented by 2 μg plasmid pAdCMVX. Cytoplasmic HBV core particles were isolated from equal numbers of cells (Klein, et al. 1997, EMBOJ 18: 5019-5027) and viral DNA replication intermediates detected by Southern blot as described (Klein, et al. 1997, EMBOJ 18: 5019-5027). The smear represents 4 kb (mature double-stranded DNA) to 2 kb (first-strand single-stranded DNA). Northern blot analysis was carried out using poly(A+) RNA extracted from equal numbers of cells. (E) Southern and Northern blot analyses were performed on HepG2 cells transfected as above with or without pPKM or PPRKS. Typical experiments are shown.
FIG. 10. […] Products were resolved by electrophoresis and detected by autoradiography. Typical results are shown.
(§2) FIG. 11. (A) HepG2 cells were with HBV or HBx(−) HBV genomic DNA. At 24 h post-transfection cells were treated with 1 nM valinomycin (val.) or 20 nM thapsigargin (thap.) for 4 d, cytoplasmic core particles were isolated from equal numbers of cells and viral replication examined by Southern blot hybridization. HBV transcription was analyzed by Northern blot hybridization. (B) Nontransfected HepG2 cells 5were treated with valinomycin or thapsigargin as above, and the abundance of Pyk2 or activated Pyk2 Y-402 phosphorylation determined by immunoblot
The requirement for cytosolic calcium and HBx activation of Pyk2 in HBV replication was examined. […]
Studies next determined whether HBx activity can be replaced by ionophoric agents that increase cytosolic calcium. […]

In assay [3] the test system is Pyk2. The assay is described as follows: Pyk2 Y-402 phosphorylation immunoblot, Chang cells. It is filed as cell-based, human. As to conditions: for HBx activation of Pyk2: 0.5 mM EGTA 2 h, 50 μM BAPTA-AM 2 h, 3 μM CsA 4 h. How it is done: FIG. 9. Chang cells or HepG2 cells were transfected with expression vectors pAdCMVX (HBx), pAdCMVXo (HBx−), pPKM, or empty vectors pAdCMV or pPRK5. (A) Chang cells were treated with 50 μM BAPTA-AM for 2 h, equal protein amounts resolved by gel-electrophoresis and immunoblotted with antibodies to Pyk2 or activated Y-402 phosphorylated Pyk2.
as §1
Studies determined whether HBx acts on intracellular calcium to activate Pyk2. […] HBx activation of Pyk2 therefore involves cytosolic calcium action. Studies next determined whether HBx acts on calcium channels in the endoplasmic reticulum (ER), mitochondria or plasma membrane (PM) for its activity.
A general note: In western blotting, separated proteins are transferred to a membrane and probed.

In assay [4] the test system is Pyk2. Put plainly: Pyk2 activity (Y-402 phosphorylation immunoblot) in nontransfected HepG2 cells. As to conditions: valinomycin 1 nM, thapsigargin 20 nM. It is filed as cell-based, human. On the procedure:
as §2
Studies next determined whether HBx activity can be replaced by ionophoric agents that increase cytosolic calcium. Cells were transfected with plasmids expressing wild type HBV or HBx(−) genomes and treated for 4 d with low, nontoxic levels of calcium mobilizing agents valinomycin (1 nM) or thapsigargin (20 nM). Reverse transcription and DNA replication of (HBx−)HBV were increased 20 fold by valinomycin to wild type (HBx+) levels, and 10 fold by thapsigargin (FIG. 11A).

Assay [5] relates to c-Src. The assay is described as follows: c-Src immunoprecipitation and in vitro kinase assay (auto-phosphorylation, enolase trans-phosphorylation), NIH 3T3 cells. It is filed as cell-based. Particulars: serum-starved NIH 3T3 cells, PDGF (100 ng/ml) for 5 minutes. On the procedure:
FIG. 1. Serum-starved NIH 3T3 cells were infected with AdCMV-X or -Xo viruses, c-Src or c-Fyn was immunoprecipitated, the pellet washed and assayed by incubation with the substrate enolase and [γ-^32P] ATP. Products were resolved by SDS-10%-PAGE then visualized and quantitiated by PhosphorImage analysis.
c-Src (FIG. 1A) or c-Fyn (FIG. 1B) were immunoprecipitated 8 h p.i. from NIH 3T3 cell lysates expressing HBx or HBxo. Where indicated, cells were incubated with PDGF (100 ng/ml) for 5 min.
Src kinase assays were carried out essentially as described (Kypta et al., 1990, Cell 62:481-492). Briefly, NIH 3T3 or Chang cells were lysed in buffer containing 1% NP-40, 150 mM NaCl, 20 mM Tris HCl pH 8, 2.5 mM EDTA, 1 mM Na3VO4, 50 mM NaF, 1 mM PMSF, 10 μg/ml aprotinin, and 10 μg/ml leupeptin. Src and Fyn kinase activity were measured by immunoprecipitating either Src (1 μg anti-Src antibodies) or Fyn (1 μg/ml anti-Fyn antibodies) from equal amounts of cell lysate. […] For the reactions containing the Src peptide substrate, TCA was added to a final concentration of 20%, an aliquot was spotted onto phosphocellulose paper (UBI), the filters were washed 3×5 minutes in 0.75% phosphoric acid and once in acetone, dried and analyzed by scintillation counting. […]

The mark [6] stands for this setting: Chang cells, high concentration of EGTA (3 mM).

As to `CC(=O)OCOC(=O)CN(CC(=O)OCOC(C)=O)c1ccccc1OCCOc1ccccc1N(CC(=O)OCOC(C)=O)CC(=O)OCOC(C)=O` [BAPTA-AM], the “impairment of HBV viral DNA replication” value in assay [1] (HBV genome transfected HepG2 cells, low levels of BAPTA-AM (2.5 μM or 25 μM) for 4 d) is 10 fold. Besides, in assay [2] (HBV genome transfected HepG2 cells, low levels of BAPTA-AM for 4 d), the “HBV mRNA levels” value is recorded as “without strongly reducing”. Besides, the “HBx activation of Pyk2” value in assay [3] (Chang cells) was “prevented”. Also, in assay [3] (HBx transfected Chang cells, 50 μM (2 times IC50) for 2 h), the “HBx-induced Pyk2 phosphorylation at Y-402” value is “prevented”. For the same compound, in assay [3] (HBx transfected Chang cells, 50 μM for 2 h), the Pyk2 levels result is reported as “without altering”.
For the compound `O=C(O)CN(CCOCCOCCN(CC(=O)O)CC(=O)O)CC(=O)O` [EGTA], in assay [3] (setting [6]), the “TPA activation of Pyk2 phosphorylation” value is “did not block” and the “activation of Pyk2 by HBx” value is “partially inhibited”. In addition, the “HBx activation of Pyk2” value in assay [3] (Chang cells) is listed as “no effect”.
For `C/C=C(/C)C(=O)O[C@H]1C(C)=C2[C@H]([C@@H]1OC(=O)CCCCCCC)[C@@](C)(OC(C)=O)C[C@H](OC(=O)CCC)[C@@]1(O)[C@H]2OC(=O)[C@@]1(C)O` [thapsigargin], the “increase of reverse transcription and DNA replication of (HBx−)HBV” value in assay [1] was 10 fold. Moreover, the “cytoplasmic levels of HBV pgRNA and HBsAg mRNAs” value in assay [2] is “Neither agent increased”. In addition, in assay [4], the “stimulation of Pyk2 activity” value is listed as 3 fold.
Take `CC(C)[C@@H]1NC(=O)[C@H](C)OC(=O)[C@@H](C(C)C)NC(=O)[C@@H](C(C)C)OC(=O)[C@H](C(C)C)NC(=O)[C@H](C)OC(=O)[C@@H](C(C)C)NC(=O)[C@@H](C(C)C)OC(=O)[C@H](C(C)C)NC(=O)[C@H](C)OC(=O)[C@@H](C(C)C)NC(=O)[C@@H](C(C)C)OC1=O` [valinomycin]: the “increase of reverse transcription and DNA replication of (HBx−)HBV” value in assay [1] is 20 fold. For the same compound, in assay [2], the “cytoplasmic levels of HBV pgRNA and HBsAg mRNAs” value is reported as “Neither agent increased”. Also, the “stimulation of Pyk2 activity” value in assay [4] is given as 5 fold.
As to PDGF, the “activation of c-Src (auto- and trans-phosphorylation)” value in assay [5] was 3-4 fold.

The values above are taken from US20020045191A1, “Inhibition of the SRC kinase family pathway as a method of treating HBV infection and hepatocellular carcinoma” (priority 2000, published 2002).
